Measurements from patent publication US12715844B2, “Compound, preparation method therefor, composition, kit and use thereof” (SIGNDO BIOTECHNOLOGY (SUZHOU) CO., LTD, priority 2023, dated 2026).

Assays:
PSMA receptor = molecular target: T1, PSMA receptor (Homo sapiens, UniProt Q04609); assay: Receptor binding detected by flow cytometry in vitro (competitive binding with DUPA-FITC); conditions: 22RV1 (PSMA+) cells, competition with 100 nmol/L DUPA-FITC
T1 construct: endogenous in cells; host or cells: 22RV1 (PSMA+); PC3 (PSMA−) as negative control
T1 sequence (Q04609 whole entry): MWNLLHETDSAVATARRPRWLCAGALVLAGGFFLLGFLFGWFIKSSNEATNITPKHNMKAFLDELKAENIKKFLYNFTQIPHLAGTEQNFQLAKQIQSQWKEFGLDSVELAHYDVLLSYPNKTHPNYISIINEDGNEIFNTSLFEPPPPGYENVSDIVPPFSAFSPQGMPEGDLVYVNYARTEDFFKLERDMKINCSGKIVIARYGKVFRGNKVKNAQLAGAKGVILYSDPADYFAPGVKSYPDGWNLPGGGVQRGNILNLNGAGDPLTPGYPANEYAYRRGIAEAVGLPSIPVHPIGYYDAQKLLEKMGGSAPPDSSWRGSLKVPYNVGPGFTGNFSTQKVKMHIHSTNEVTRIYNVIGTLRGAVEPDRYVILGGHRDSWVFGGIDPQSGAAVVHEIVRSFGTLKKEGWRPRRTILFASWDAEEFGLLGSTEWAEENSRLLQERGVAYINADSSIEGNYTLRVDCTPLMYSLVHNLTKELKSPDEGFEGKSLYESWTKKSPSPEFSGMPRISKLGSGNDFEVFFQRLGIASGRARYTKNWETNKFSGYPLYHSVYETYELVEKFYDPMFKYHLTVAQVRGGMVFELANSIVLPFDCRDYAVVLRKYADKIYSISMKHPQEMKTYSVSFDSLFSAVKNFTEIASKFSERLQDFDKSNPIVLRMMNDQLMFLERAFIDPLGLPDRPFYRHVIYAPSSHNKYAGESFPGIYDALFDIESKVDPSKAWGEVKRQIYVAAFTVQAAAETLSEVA
From the text: 1. Receptor Binding was Detected by Flow Cytometry In Vitro:
Prostate-specific membrane antigen (PSMA) is overexpressed on prostate cancer cells. Both DUPA-FITC and DGPR1008 are capable of targeting the PSMA receptor in prostate cancer cells, with the difference being that DUPA-FITC is connected to a visible light dye (Ex=495 nm, Em=520 nm), whereas DGPR1008 is connected to a near-infrared dye (Ex=776 nm, Em=793 nm). Since the majority types of lasers equipped in flow cytometers operate within the visible light spectrum, the binding affinity of DGPR1008 to the receptor can not be directly measured. Therefore, the competitive binding of DGPR1008 with DUPA-FITC to PSMA is employed to indirectly assess the binding affinity of the test compound to the receptor.
DGPR1008, DUPA-FITC, 22RV1 (PSMA+), PC3 (PSMA−), 1640 culture medium, FBS, double antibiotics, trypsin, centrifuge, 4° C. constant temperature incubator, flow cytometer.
Drug preparation: 100 nmol/L DUPA-FITC was prepared using culture medium. The test compound was diluted to nine concentrations (0.00098 μM, 0.002 μM, 0.008 μM, 0.01 μM, 0.03 μM, 0.05 μM, 0.09 μM, 0.1 μM, and 0.125 μM) using culture medium containing 100 nmol/L DUPA-FITC, with three replicate wells for each concentration.
Cell culture: The cells were seeded in T75 culture flasks. After 48 h, cells in the logarithmic growth phase were taken, digested with trypsin for 1-2 min, and the digestion was then terminated by adding fresh culture medium. After cell counting, the cells were transferred into a 96-well plate (1×10^5 cells/well), totaling 27 wells. The culture medium was discarded by centrifugation (800 rpm, 5 min), and the cells were washed twice with PBS and then centrifuged to collect the cell pellet. The prepared culture media with 9 concentrations were added to the cell-containing wells, with three replicates for each concentration. The cells were incubated at 4° C. in the dark for 30 min, and then the culture medium in the wells was discarded. Cells were washed by adding 300 μL of fresh culture medium (twice) and saline (once) to each well, followed by resuspension in 300 μL of saline for flow cytometry detection.

22RV1 (PSMA+) [1] = assay: Drug efficacy validation by in vivo live imaging, three dose groups; parameters: species or system mice; conditions: for targeting properties: 22RV1 tumor mice, in vivo live imaging; for enrichment in the prostate cancer tumor site: high, medium and low doses (25, 50, 100 nmol/mouse), scans 1-48 h
From the text: (§1) “V” denotes the volume-to-mass ratio. […] Mice refer to BALB/c nude mice, 6-8 weeks old, weighing 18-20 g; rats refer to SD rats: 8 weeks old, approximately 250 g.
2. Drug Efficacy Validation Experiment Using In Vivo Live Imaging
Prostate-specific membrane antigen (PSMA) is overexpressed on prostate cancer cells. The test compound is a PSMA-targeting molecule conjugated with a near-infrared region I dye. The test compound can bind to PSMA and “illuminate” cancer cells upon excitation by a near-infrared light source. In this experiment, the in vivo tissue distribution of the test compound in mice is detected using in vivo live imaging.
DGPR1008, 22RV1 (PSMA+), PC3 (PSMA−), 1640 culture medium, FBS, double antibodies, trypsin, Matrigel (BD), vernier caliper, centrifuge, IVIS live imager.
Matrigel was thawed on ice in advance, and the culture medium was pre-cooled on ice. After centrifugation, the cells were resuspended in the pre-cooled culture medium, followed by the addition of HC Matrigel gel in a volume equal to the culture medium. The centrifuge tube containing the cells was placed on ice and transferred to the animal facility. The cells were thoroughly dispersed before inoculation. The right dorsal shoulder area of the mice was disinfected with an alcohol cotton ball, and a single intravenous administration was performed with an inoculation volume of 200 μL per mouse. All operations were performed on ice. When the tumor volume reached 300-400 mm^3, the mice were grouped for administration. Nine mice with well-grown and regularly shaped tumors were selected into the group. The nine mice were randomly divided into three groups: G1 (25 nmol/mouse), G2 (50 nmol/mouse), and G3 (100 nmol/mouse), with three mice in each group. The scanning time: 1, 2, 4, 8, 24, and 48 h.

22RV1 (PSMA+) [2] = assay: In vivo live imaging comparison with the existing product OTL78; parameters: species or system mice; conditions: for TBR (tumor-to-background ratio), in words: from about 2 h to 72 h; for fluorescence value at the tumor site compared with OTL78: mice, each time point; for TBR compared with OTL78: relative to OTL78
From the text: as §1
3. Comparison with the Existing Product OTL78
(§2) The Prostate-specific membrane antigen (PSMA) is overexpressed on prostate cancer cells. The test compound is a PSMA-targeting molecule conjugated with a near-infrared region I dye. The test compound can bind to PSMA and “illuminate” cancer cells upon excitation by a near-infrared light source. In this experiment, the in vivo and ex vivo tissue distribution of the test compound in mice is detected using in vivo live imaging.
DGPR1008, 22RV1 (PSMA+), BALB/c nude mouse, 1640 culture medium, FBS, double antibodies, trypsin, Matrigel (BD), vernier caliper, centrifuge, IVIS live imager.
(§3) Matrigel was thawed on ice in advance, and the culture medium was pre-cooled on ice. After centrifugation, the cells were resuspended in the pre-cooled culture medium, followed by the addition of HC Matrigel gel in a volume equal to the culture medium. The centrifuge tube containing the cells was placed on ice and transferred to the animal facility. The cells were thoroughly dispersed before inoculation. The back of the neck was disinfected with an alcohol cotton ball, and a single intravenous administration was performed with an inoculation volume of 200 μL per mouse. All operations were performed on ice. When the tumor volume reached 300-400 mm^3, the mice were grouped for administration. Six mice with well-grown and regularly shaped tumors were selected into the group. The six mice were randomly divided into two groups: G1 (OTL78 10 nmol/mouse) and G2 (DGPR1008 10 nmol/mouse) with three mice in each group. The scanning time: 1, 2, 4, 8, 24, and 72 h.
(1) Results and Data of In Vivo Live Imaging of Drug Efficacy (Mice were Used as Experimental Subjects in this Part)

22RV1 (PSMA+) [3] = assay: 2-hour ex vivo tissue distribution: fluorescence of tumor and in situ normal prostate; parameters: species or system mice; conditions: relative to OTL78
From the text: as §2, §3
(2) Results of 2-Hour Ex Vivo Tissue Distribution: Fluorescence Ratio of Tumor to In Situ Normal Prostate: […]

[4] = Pharmacokinetic parameters in rat plasma; assay type: in vivo; conditions: compared with OTL78
[5] = Acute toxicity experiment on rats; conditions: three dose groups of high, medium and low doses

SMILES | binding affinity to PSMA receptor (PSMA receptor) | targeting properties (22RV1 (PSMA+) [1]) | enrichment in the prostate cancer tumor site (22RV1 (PSMA+) [1]) | TBR (tumor-to-background ratio), in words (22RV1 (PSMA+) [2]) | fluorescence value at the tumor site compared with OTL78 (22RV1 (PSMA+) [2]) | TBR compared with OTL78 (22RV1 (PSMA+) [2]) | discrimination capability (tumor vs normal prostate) compared with OTL78 (22RV1 (PSMA+) [3]) | clearance in rats in vivo, in words [4] | toxic reactions in acute toxicity experiment [5]
CC1(C)C(=CC=C2CCCC(C=CC3=[N+](CCCCS(=O)(=O)[O-])c4ccc(S(=O)(=O)[O-])cc4C3(C)C)=C2Oc2ccc(CC(NC(=O)CCOCCCOCCCOCCOCCOCCNC(=O)CCC(NC(=O)NC(CCC(=O)[O-])C(=O)[O-])C(=O)[O-])C(=O)[O-])cc2)N(CCCCS(=O)(=O)[O-])c2ccc(S(=O)(=O)[O-])cc21.[Na+].[Na+].[Na+].[Na+].[Na+].[Na+].[Na+] (stereo not drawn) [Example 41] | good affinity | good targeting properties | enriched in the prostate cancer tumor site | good TBR | greater fluorescence values at the tumor site than OTL78 | higher TBR | approximately 5 fold | cleared more rapidly | no toxic reactions were observed
CC1(C)C(=CC=C2CCCC(C=CC3=[N+](CCCCS(=O)(=O)[O-])c4ccc(S(=O)(=O)[O-])cc4C3(C)C)=C2Oc2ccc(CC(NC(=O)CCOCCCOCCCCCOCCOCCNC(=O)CCC(NC(=O)NC(CCC(=O)[O-])C(=O)[O-])C(=O)[O-])C(=O)[O-])cc2)N(CCCCS(=O)(=O)[O-])c2ccc(S(=O)(=O)[O-])cc21.[Na+].[Na+].[Na+].[Na+].[Na+].[Na+].[Na+] (stereo not drawn) [Example 51] | good affinity | good targeting properties | enriched in the prostate cancer tumor site | good TBR | greater fluorescence values at the tumor site than OTL78 | higher TBR | approximately 5 fold | cleared more rapidly | no toxic reactions were observed
